Assay results: patent publication US20240109903A1, “SUBSTITUTED HETEROCYCLES FOR TREATING CANCER” (Northwestern University, priority 2022, published 2024)

Tests used:
Assay type in all cases: cell-based
RPMI-8226 = experiment: NCI 60 five-dose screen RPMI-8226; conditions: Homo sapiens, five-dose; for CC50: read-out: LC50 (the source's name)
MDA-MB-435 = experiment: NCI 60 five-dose screen MDA-MB-435; conditions: Homo sapiens, five-dose; for CC50: read-out: LC50 (the source's name) (converted)
NCI-H322M = experiment: NCI 60 five-dose screen NCI-H322M; conditions: Homo sapiens, five-dose; for CC50: read-out: LC50 (the source's name) (converted)
LOX IMVI = experiment: NCI 60 five-dose screen LOX IMVI; conditions: Homo sapiens, five-dose; for CC50: read-out: LC50 (the source's name) (converted)
UO-31 = experiment: NCI 60 five-dose screen UO-31; conditions: Homo sapiens, five-dose; for CC50: read-out: LC50 (the source's name) (converted)
MOLT-4 = experiment: NCI 60 five-dose screen MOLT-4; conditions: Homo sapiens, five-dose; for CC50: read-out: LC50 (the source's name)
SF-295 = experiment: NCI 60 five-dose screen SF-295; conditions: Homo sapiens, five-dose; for CC50: read-out: LC50 (the source's name) (converted)
OVCAR-5 = experiment: NCI 60 five-dose screen OVCAR-5; conditions: Homo sapiens, five-dose; for CC50: read-out: LC50 (the source's name) (converted)
MALME-3M = experiment: NCI 60 five-dose screen MALME-3M; conditions: Homo sapiens, MALME-3M, five-dose; for CC50: read-out: LC50 (the source's name) (converted)
KM12 = experiment: NCI 60 five-dose screen KM12; conditions: Homo sapiens, five-dose; for CC50: read-out: LC50 (the source's name) (converted)
TK-10 = experiment: NCI 60 five-dose screen TK-10; conditions: Homo sapiens, five-dose; for CC50: read-out: LC50 (the source's name) (converted)
DU-145 = experiment: NCI 60 five-dose screen DU-145; conditions: Homo sapiens, five-dose; for CC50: read-out: LC50 (the source's name) (converted)
HL-60(TB) = experiment: NCI 60 five-dose screen HL-60(TB); conditions: Homo sapiens, five-dose; for CC50: read-out: LC50 (the source's name) (converted)
PC-3 = experiment: NCI 60 five-dose screen PC-3; conditions: Homo sapiens, five-dose; for CC50: read-out: LC50 (the source's name) (converted)

FC(F)(F)c1cc2c(Cl)ncnc2n1CCC1CCOCC1 [NUCC-0226674]
GI50 (RPMI-8226): 14.5 µM | IC50 (RPMI-8226): 25.7 µM | IC (TGI) (RPMI-8226): 41.7 µM | CC50 (RPMI-8226): ≥ 100 µM | GI50 (MDA-MB-435): 5.01 µM | IC50 (MDA-MB-435): 8.13 µM | IC (TGI) (MDA-MB-435): 18.2 µM | CC50 (MDA-MB-435): 49 µM | GI50 (NCI-H322M): 3.16 µM | IC50 (NCI-H322M): 8.32 µM | IC (TGI) (NCI-H322M): 12.6 µM | CC50 (NCI-H322M): 35.5 µM | GI50 (LOX IMVI): 1620 nM | IC50 (LOX IMVI): 2880 nM | IC (TGI) (LOX IMVI): 3.02 µM | CC50 (LOX IMVI): 5.5 µM | GI50 (UO-31): 1780 nM | IC50 (UO-31): 3.39 µM | IC (TGI) (UO-31): 3.8 µM | CC50 (UO-31): 7.94 µM | GI50 (MOLT-4): 2340 nM | IC50 (MOLT-4): 4.27 µM | IC (TGI) (MOLT-4): 5.5 µM | CC50 (MOLT-4): ≥ 100 µM | GI50 (SF-295): 13.8 µM | IC50 (SF-295): 25.1 µM | IC (TGI) (SF-295): 27.5 µM | CC50 (SF-295): 56.2 µM | GI50 (OVCAR-5): 24 µM | IC50 (OVCAR-5): 45.7 µM | IC (TGI) (OVCAR-5): 81.3 µM | CC50 (OVCAR-5): ≥ 100 µM | GI50 (MALME-3M): 15.1 µM | IC50 (MALME-3M): 29.5 µM | IC (TGI) (MALME-3M): 29.5 µM | CC50 (MALME-3M): 56.2 µM | GI50 (KM12): 16.2 µM | IC50 (KM12): 28.2 µM | IC (TGI) (KM12): 33.9 µM | CC50 (KM12): 70.8 µM | GI50 (TK-10): 17.4 µM | IC50 (TK-10): 36.3 µM | IC (TGI) (TK-10): 36.3 µM | CC50 (TK-10): 77.6 µM | GI50 (DU-145): 4.37 µM | IC50 (DU-145): 7.24 µM | IC (TGI) (DU-145): 15.1 µM | CC50 (DU-145): 39.8 µM | GI50 (HL-60(TB)): 2240 nM | IC50 (HL-60(TB)): 4.17 µM | IC (TGI) (HL-60(TB)): 5.01 µM | CC50 (HL-60(TB)): 44.7 µM | GI50 (PC-3): 2.95 µM | IC50 (PC-3): 4.27 µM | IC (TGI) (PC-3): 11.2 µM | CC50 (PC-3): 45.7 µM

FC(F)(F)CN1CCN(CCn2c(C(F)(F)F)cc3c(Cl)ncnc32)CC1 [NUCC-0226683]
GI50 (RPMI-8226): 23.4 µM | IC50 (RPMI-8226): 39.8 µM | IC (TGI) (RPMI-8226): 77.6 µM | CC50 (RPMI-8226): ≥ 100 µM | GI50 (MDA-MB-435): 5.5 µM | IC50 (MDA-MB-435): 9.12 µM | IC (TGI) (MDA-MB-435): 19.5 µM | CC50 (MDA-MB-435): 51.3 µM | GI50 (NCI-H322M): 5.5 µM | IC50 (NCI-H322M): 15.8 µM | IC (TGI) (NCI-H322M): 19.1 µM | CC50 (NCI-H322M): 44.7 µM | GI50 (LOX IMVI): 1660 nM | IC50 (LOX IMVI): 2950 nM | IC (TGI) (LOX IMVI): 3.09 µM | CC50 (LOX IMVI): 5.75 µM | GI50 (UO-31): 1620 nM | IC50 (UO-31): 3.02 µM | IC (TGI) (UO-31): 3.24 µM | CC50 (UO-31): 6.61 µM | GI50 (MOLT-4): 2400 nM | IC50 (MOLT-4): 4.17 µM | IC (TGI) (MOLT-4): 9.12 µM | CC50 (MOLT-4): ≥ 100 µM | GI50 (SF-295): 10.2 µM | IC50 (SF-295): 17.8 µM | IC (TGI) (SF-295): 25.7 µM | CC50 (SF-295): 64.6 µM | GI50 (OVCAR-5): 100 µM | IC50 (OVCAR-5): 100 µM | IC (TGI) (OVCAR-5): 100 µM | CC50 (OVCAR-5): ≥ 100 µM | GI50 (MALME-3M): 14.5 µM | IC50 (MALME-3M): 33.9 µM | IC (TGI) (MALME-3M): 32.4 µM | CC50 (MALME-3M): 70.8 µM | GI50 (KM12): 17.8 µM | IC50 (KM12): 30.2 µM | IC (TGI) (KM12): 39.8 µM | CC50 (KM12): 89.1 µM | GI50 (TK-10): 35.5 µM | IC50 (TK-10): 100 µM | IC (TGI) (TK-10): 100 µM | CC50 (TK-10): ≥ 100 µM | GI50 (DU-145): 12.6 µM | IC50 (DU-145): 22.4 µM | IC (TGI) (DU-145): 33.1 µM | CC50 (DU-145): 87.1 µM | GI50 (HL-60(TB)): 2750 nM | IC50 (HL-60(TB)): 5.75 µM | IC (TGI) (HL-60(TB)): 8.13 µM | CC50 (HL-60(TB)): ≥ 100 µM | GI50 (PC-3): 3.55 µM | IC50 (PC-3): 5.01 µM | IC (TGI) (PC-3): 12 µM | CC50 (PC-3): 57.5 µM

OC1CCC(Cn2c(C(F)(F)F)cc3c(Cl)ncnc32)CC1 (stereo not drawn) [NUCC-0226689]
GI50 (RPMI-8226): 33.9 µM | IC50 (RPMI-8226): 58.9 µM | IC (TGI) (RPMI-8226): 100 µM | CC50 (RPMI-8226): ≥ 100 µM | GI50 (MDA-MB-435): 12 µM | IC50 (MDA-MB-435): 20 µM | IC (TGI) (MDA-MB-435): 25.7 µM | CC50 (MDA-MB-435): 55 µM | GI50 (NCI-H322M): 3.8 µM | IC50 (NCI-H322M): 10.2 µM | IC (TGI) (NCI-H322M): 13.5 µM | CC50 (NCI-H322M): 38 µM | GI50 (LOX IMVI): 1700 nM | IC50 (LOX IMVI): 3020 nM | IC (TGI) (LOX IMVI): 3.16 µM | CC50 (LOX IMVI): 5.75 µM | GI50 (UO-31): 15100 nM | IC50 (UO-31): 38.9 µM | IC (TGI) (UO-31): 66.1 µM | CC50 (UO-31): ≥ 100 µM | GI50 (MOLT-4): 2750 nM | IC50 (MOLT-4): 4.47 µM | IC (TGI) (MOLT-4): 8.13 µM | CC50 (MOLT-4): ≥ 100 µM | GI50 (SF-295): 22.9 µM | IC50 (SF-295): 38.9 µM | IC (TGI) (SF-295): 83.2 µM | CC50 (SF-295): ≥ 100 µM | GI50 (OVCAR-5): 100 µM | IC50 (OVCAR-5): 100 µM | IC (TGI) (OVCAR-5): 100 µM | CC50 (OVCAR-5): ≥ 100 µM | GI50 (MALME-3M): 17.8 µM | IC50 (MALME-3M): 85.1 µM | IC (TGI) (MALME-3M): 64.6 µM | CC50 (MALME-3M): ≥ 100 µM | GI50 (KM12): 26.3 µM | IC50 (KM12): 37.2 µM | IC (TGI) (KM12): 93.3 µM | CC50 (KM12): ≥ 100 µM | GI50 (TK-10): 100 µM | IC50 (TK-10): 100 µM | IC (TGI) (TK-10): 100 µM | CC50 (TK-10): ≥ 100 µM | GI50 (DU-145): 7.94 µM | IC50 (DU-145): 13.8 µM | IC (TGI) (DU-145): 20.4 µM | CC50 (DU-145): 46.8 µM | GI50 (HL-60(TB)): 2630 nM | IC50 (HL-60(TB)): 5.01 µM | IC (TGI) (HL-60(TB)): 8.91 µM | CC50 (HL-60(TB)): ≥ 100 µM | GI50 (PC-3): 8.91 µM | IC50 (PC-3): 15.5 µM | IC (TGI) (PC-3): 36.3 µM | CC50 (PC-3): ≥ 100 µM
